Results published in patent US10197556B2, “Methods to detect non-genotoxic carcinogens using flatworms” (Universiteit Gent, priority 2015, dated 2019).
Structures can show the parent of a compound that is named as a salt. Where two headings read alike, the source gives them in different places.

Experiments:
Macrostomum lignano = settings: for prediction by the assay in the experiments: outcome over the experiments
Procedure: Cultures of Macrostomum lignano (37) were grown in artificial seawater (ASW) enriched with f/2-medium (40) and fed ad libitum with the diatom Nitzschia curvilineata (PAE culture collection; UGent on the World Wide Web at pae.ugent.be/collection.htm), as described in references 41 and 43.
One week before starting chemical exposure, a six-well plate filled with 4 ml f/2 medium (Novolab NV) was inoculated with diatoms to achieve an ad libitum food source during exposure. Starvation of the worms leads to a decrease in stem cell proliferation (as shown in Nimeth et al (29)), which would interfere with stem cell proliferation, the endpoint of the assay. Before the start of exposure, fifteen adult worms per condition were pipetted in each well, which was then emptied by pipetting without drying out the worms and refilled with f/2 medium (control), if required, F2+0.05% DMSO (vehicle control) and a concentration of the chemical.
The DMSO concentration in the vehicle control never exceeded 0.05%. This represented the maximum DMSO percentage in the chemical's highest test concentration.
To select the appropriate compound concentration, first, a broad concentration range-finding experiment (spacing factor 10; two weeks exposure) was carried out. Based on this pilot range finding, a fine-tuned range finding (spacing factor less than or equal to 2; for D-Mannitol factor 5) was chosen to conduct the assay. The maximum concentration tested depended on the test compound solubility and the requirement of a survival of twelve out of fifteen worms at the end of exposure.
For all chemicals investigated in this disclosure, the medium was refreshed weekly.
After a preliminary test (CP as reference) on different exposure times ranging from two days to six weeks, the worms were exposed for a period of two weeks, after which they were subjected to phosphorylated histone H3 immunostaining (PH3) to quantify mitosis.
To quantify mitotic cells in whole mount specimens, the mitotic marker anti-PH3 was used. The staining was performed by first relaxing the animals in a 1:1 mixture of MgCl2.6H2O (7.14%) and ASW (5 minutes), then in MgCl2.6H2O (7.14%) (undiluted, 5 minutes), followed by fixation in paraformaldehyde (PFA, 4% in PBS, 60 minutes). Animals were then rinsed with phosphate-buffered saline (PBS, 3×5 minutes) and blocked in bovine serum albumin, containing TRITON® (BSA-T, 0.1% TRITON® X-100, 60 minutes). Subsequently, animals were incubated in primary rabbit-anti-phos-H3 (1:300 in BSA-T, overnight, 4° C., Upstate Biotechnology), rinsed in PBS (3×5 minutes) and incubated in secondary TRITC-conjugated swine-anti-rabbit (1:150 in BSA-T, 1 hour, DAKO). Finally, animals were washed with PBS (3×5 minutes) and slides were mounted using Vectashield (Vector Laboratories). Slides were analyzed using a Leica 2500P microscope equipped with epifluorescence, a 40× objective and a DFC360FX CCD camera.
All somatic PH3-positive cells were counted manually using the Image J cell counter plugin (44) (FIG. 1). Gonadal PH3+ cells were not included in the analysis because of 1) the high density of divisions in that region that can lead to overlapping signals and 2) the germ line representing a separate population of cells, differentially tolerant to exposure, which can result in quantification variability.
The cut-off value of the assay was determined based on density plots (R version 2.15.3; (33)) of the number of mitotic stem cells of all experiments for controls (sea water and DMSO), non-carcinogens, genotoxic carcinogens and non-genotoxic carcinogens. The cut-off value of 30 lays in the tail of the distribution corresponding to the 97.5 percentile or two standard deviations.
Concentrations resulting in the death of 20% of the worms (three out of fifteen) during exposure were considered cytotoxic and were not analyzed.

Schmidtea mediterranea [1] = system: Schmidtea mediterranea
Procedure: (§1) Asexual strains of the freshwater planarian Schmidtea mediterranea (38, 45) were maintained in culture medium, consisting of water, that was first deionized and then distilled, and to which the following nutrients were added: 1.6 mM NaCl, 1.0 mM CaCl2, 1.0 mM MgSO4, 0.1 mM MgCl2, 0.1 mM KCl and 1.2 mM NaHCO3. The animals were continuously kept in the dark at a room temperature of 20° C. and were fed once a week with veal liver.
Experiments were performed with regenerating animals (heads and tails) to accelerate initial responses to carcinogenic compounds, as this process of massive cell proliferation, migration and differentiation resembles the process of carcinogenesis, and, possibly differently affects the dynamics of stem cells toward genotoxic and non-genotoxic carcinogen exposures (16, 32, 39).
In each experimental condition, animals were cut transversally immediately before exposure to a genotoxic, non-genotoxic or non-carcinogen concentration, medium (control) or medium with DMSO (vehicle control). Exposures were performed in six-well plates (4 ml/well). To exclude intrinsic effects of DMSO on cell proliferation, the DMSO vehicle concentration never exceeded 0.05% and interaction effects between the test compound and DMSO were investigated using a two-way ANOVA (32). […] Animals were fed once a week with veal liver and starved for one week before stem cell proliferation measurements. Stem cell proliferation was measured after one day of regeneration (the mitotic minimum of regeneration), after three days (the mitotic maximum of regeneration), after one week (the end stage of regeneration) after two and six weeks (during homeostasis), as well as at the appearance of organismal phenotypes (15, 46, 47). Phenotypic effects were monitored daily with a stereo microscope.
An in vivo study allows the investigation of the entire organism's response to carcinogenic compounds and, as such, makes it possible to link carcinogen-induced stem cell proliferation with the organism's phenotype. Conditions were subdivided according to their phenotypic effects into concentrations that caused no observable phenotypic effects (category 1), phenotypic effects (category 2, described in phenotypic effect screening) and concentrations that induced organismal death (category 3). Phenotypic parameters that were monitored daily were tissue regression, lesion, blisters, bloating, pigmentation, behavior, regenerative success, body size, tissue outgrowth, flattened posture and organismal death (35). Stem cell proliferation was quantified at the appearance of systemic effects (category 2 concentrations).

[2] = Solubility of test compound in the exposure medium; assay type: physicochemical; settings: concentrations higher than 5 mM
Schmidtea mediterranea [3] = settings: in vivo
Procedure: as §1, with “liver. […]” for “liver.”
In each experimental condition, animals were cut transversally immediately before exposure to a genotoxic, non-genotoxic or non-carcinogen concentration, medium (control) or medium with DMSO (vehicle control). […] Stem cell proliferation was measured after one day of regeneration (the mitotic minimum of regeneration), after three days (the mitotic maximum of regeneration), after one week (the end stage of regeneration) after two and six weeks (during homeostasis), as well as at the appearance of organismal phenotypes (15, 46, 47). Phenotypic effects were monitored daily with a stereo microscope.

[4] = category 2 concentrations, three days (MMS), one week (4NQO), two weeks (S-PB, CPZ, MPH)
[5] = asexual strain, Schmidtea mediterranea, in vivo
[6] = asexual strain, Schmidtea mediterranea, in vivo, 2 weeks
[7] = 100 μM, Experiment 2, two weeks exposure
[8] = 100 μM, Experiment 3, two weeks exposure

O=[N+]([O-])c1cc[n+]([O-])c2ccccc12 [4-Nitroquinoline-1-oxide]
proportion of worms having 30 or more mitotic stem cells (Macrostomum lignano; 0.125 μM, Experiment 2, two weeks exposure): 16.7%
proportion of worms having 30 or more mitotic stem cells (Macrostomum lignano; 0.5 μM, Experiment 1, two weeks exposure): 77.8%
proportion of worms having 30 or more mitotic stem cells (Macrostomum lignano; 0.5 μM, Experiment 2, two weeks exposure): 0%
proportion of worms having 30 or more mitotic stem cells (Macrostomum lignano; 0.5 μM, Experiment 3, two weeks exposure): 36.4%
Cat. 1 concentrations: No effects on phenotype (Schmidtea mediterranea [1]; 4NQO, exposure one week): 0.1 to 0.5 µM
Cat. 2 concentrations: Phenotypic effects (Schmidtea mediterranea [1]; 4NQO, exposure one week): 2 µM
Cat. 3 concentrations: Mortality (Schmidtea mediterranea [1]; 4NQO, exposure one week): 5 µM
Number of animals with Behavior effects (Schmidtea mediterranea [1]; [4]): 3/4
Number of animals with Pigmentation (Schmidtea mediterranea [1]; [4]): 2/4
Number of animals with Regenerative success effects (Schmidtea mediterranea [1]; [4]): 4/4
Number of animals with Tissue regression (Schmidtea mediterranea [1]; [4]): 2/4

CN(C)CCCN1c2ccccc2Sc2ccc(Cl)cc21 [CPZ, chlorpromazine hydrochloride]
Number of animals with Behavior effects (Schmidtea mediterranea [1]; [5]): 4/4
Number of animals with Body size effects (Schmidtea mediterranea [1]; [5]): 2/2
concentrations that trigger phenotypic effects (Schmidtea mediterranea [1]; [5]): 1 µM
Cat. 1 concentrations: No effects on phenotype (Schmidtea mediterranea [1]; [6]): 0.25 to 0.5 µM
Cat. 2 concentrations: Phenotypic effects (Schmidtea mediterranea [1]; [6]): 0.75 to 1 µM
Cat. 3 concentrations: Mortality (Schmidtea mediterranea [1]; [6]): 2 µM

O=P1(N(CCCl)CCCl)NCCCO1 (stereo not drawn) [Cyclophosphamide monohydrate]
proportion of worms having 30 or more mitotic stem cells (Macrostomum lignano; 50 μM, Experiment 1, two weeks exposure): 0%
proportion of worms having 30 or more mitotic stem cells (Macrostomum lignano; 50 μM, Experiment 2, two weeks exposure): 0%
proportion of worms having 30 or more mitotic stem cells (Macrostomum lignano; 50 μM, Experiment 3, two weeks exposure): 16.7%
proportion of worms having 30 or more mitotic stem cells (Macrostomum lignano; 100 μM, Experiment 1 (only three worms quantified, experiment excluded), two weeks exposure): 66.7%
Pred (Macrostomum lignano; [7]): + (+ in case 20% or more worms having 30 or more mitotic stem cells)
proportion of worms having 30 or more mitotic stem cells (Macrostomum lignano; [7]): 20%
Pred (Macrostomum lignano; [8]): + (+ in case 20% or more worms having 30 or more mitotic stem cells)
proportion of worms having 30 or more mitotic stem cells (Macrostomum lignano; [8]): 33.3%
Prediction of the experiment (Macrostomum lignano; Experiment 2, all concentrations, two weeks exposure): Pos
Prediction of the experiment (Macrostomum lignano; Experiment 3, all concentrations, two weeks exposure): Pos
Overall prediction (Macrostomum lignano; final prediction call over three experiments): Pos
concentrations predicted positive (Macrostomum lignano; two weeks exposure): 100 µM
prediction by the assay in the experiments (Macrostomum lignano; two weeks exposure): predicted positive in all experiments

OC[C@@H](O)[C@@H](O)[C@H](O)[C@H](O)CO [D-mannitol]
proportion of worms having 30 or more mitotic stem cells (Macrostomum lignano; 1000 μM, Experiment 1, two weeks exposure): 0%
proportion of worms having 30 or more mitotic stem cells (Macrostomum lignano; 1000 μM, Experiment 2, two weeks exposure): 0%
proportion of worms having 30 or more mitotic stem cells (Macrostomum lignano; 1000 μM, Experiment 3, two weeks exposure): 0%
proportion of worms having 30 or more mitotic stem cells (Macrostomum lignano; 5000 μM, Experiment 1, two weeks exposure): 0%
proportion of worms having 30 or more mitotic stem cells (Macrostomum lignano; 5000 μM, Experiment 2, two weeks exposure): 0%
proportion of worms having 30 or more mitotic stem cells (Macrostomum lignano; 5000 μM, Experiment 3, two weeks exposure): 0%
concentration up to which predicted negative (Macrostomum lignano; all three experiments, two weeks exposure): up to 5 mM
worms having a number of mitotic stem cells exceeding the cut-off value (Macrostomum lignano; all three experiments, up to 5 mM, two weeks exposure): 0%
prediction by the assay in the experiments (Macrostomum lignano; two weeks exposure): predicted negative by the assay for all three experiments
solubility in the medium [2]: insolubility in the medium
phenotypic effects induced by exposure (Schmidtea mediterranea [1]; in vivo): no phenotypic effects
effects on proliferative responses (Schmidtea mediterranea [3]): no significant effects
